We go through two compounds from PMC9167309, “Multiple-reaction monitoring (MRM) LC–MS/MS quantitation of venlafaxine and its O-desmethyl metabolite for a preclinical pharmacokinetic study in rabbits” (Scientific Reports, 2022).

Series [1] relates to serotonin reuptake. The note with it: cited from earlier work.
A short description of series [2]: Preclinical PK study: plasma VEN and ODV after a single oral dose of ER formulations, LC-MRM-MS/MS, noncompartmental analysis. The series is classed as in vivo, New Zealand White rabbits. Particulars: throughout the sampling period (36 h); after oral optimized ER tablet and RLD; above LOQ. How it is done:
Four pairs (male/female) of healthy rabbits, each weighing 3–4 kg, were provided by Government Rabbit Farm, Wussan (Pattan), Kashmir. The rabbits were divided into a reference group and a test group. […] The resulting plasma samples were frozen at − 40 °C until further analysis.
The PK evaluation summarized in Table 11 was carried out by way of noncompartmental analysis (NCA) using WinNonlin 8.1 and the additional statistical computations were performed in SAS 9.4. […] The statistical assurance of bioequivalent similarity given in Table 12 was computed using analysis of variance on log-transformed PK parameters (Cmax, AUClast, and AUCINF_obs) of reference and test product.

Series [3] concerns noradrenaline reuptake. On the set-up: method as in doi:10.2165/00023210-200014060-00006. Particulars: cited from earlier work.
For series [4], the system named is dopamine reuptake. Also on record: method as in doi:10.2165/00023210-200014060-00006. The note with it: cited from earlier work.

In the case of `CN(C)CC(c1ccc(O)cc1)C1(O)CCCCC1` (stereo not shown) [ODV, O-desmethylvenlafaxine], the “inhibition of serotonin reuptake” value in series [1] is given as “potent inhibitors”. The plasma concentrations in series [2] is > 0.5 ng/mL. Besides, the “inhibition of noradrenaline reuptake” value in series [3] is on record as “potent inhibitors”. Moreover, the “inhibition of dopamine reuptake” value in series [4] is recorded as “weakly inhibit”.

`COc1ccc(C(CN(C)C)C2(O)CCCCC2)cc1` (racemic) [VEN, (RS) 1-[2-(dimethylamino)-1-(4-methoxyphenyl)ethyl]cyclohexanol]: the plasma concentrations in series [2] was > 0.5 ng/mL. Moreover, the “inhibition of noradrenaline reuptake” value in series [3] was “potent inhibitors”. Moreover, the “inhibition of dopamine reuptake” value in series [4] is “weakly inhibit”.
